From patent US7511074B2, “Tetrafluorobenzyl derivatives and pharmaceutical composition for preventing and treating acute and chronic neurodegenerative diseases in central nervous system containing the same” (AmKor Pharma, Inc., priority 2002, dated 2009)

Tested on: Mouse cortical cell cultures
Assay: FeCl2-induced free radical neurotoxicity in mixed cortical cell cultures (LDH assay)
Format: cell-based
Settings: continuous 50 μM FeCl2; 1-30 μM; LDH 24 hr later
Description: (§1) Mouse cortical cell cultures (DIV 12-14) were exposed to continuously to 50 μM Fe^2+, alone or with inclusion of 0.1-100 μM 2-Hydroxy-TTBA (●) or trolox (◯), a membrane-permeable form of vitamin E). Neuronal death was analyzed 24 hr later by measuring levels of LDH released into the bathing medium, mean ±SEM (n=9-12 culture wells per condition), scaled to mean LDH efflux value 24 hr after sham wash (=0) and continuous exposure to 500 μM NMDA (=100). *, Significant difference from the vehicle control, p<0.05 using ANOVA and Student-Neuman-Keuls' test.
as §1, with “alone (♦)” for “alone”, “1-30” for “0.1-100”, “2-Hydroxy-TTS (●), 2-Hydroxy-TTA (◯), 2-Chloro-TTP (▾), 2-Ethan-TTBA (∇), 2-Propan-TTBA (▪),” for “2-Hydroxy-TTBA (●)”, “2-Cyclohexan-TTBA (□).” for “trolox (◯), a membrane-permeable form of vitamin E).”
(§2) For mixed neuron-glia culture, mouse cerebral cortices were removed from brains of the 14-16 day-old-fetal mice (E14-16), gently triturated and plated on 24 well plates (2×10^5 cells/plate) precoated with 100 μg/ml poly-D-lysine and 4 μg/ml laminine. Cultures were maintained at 37° C. in a humidified 5% CO2 atmosphere. Plating media consist of Eagles minimal essential media (MEM, Earles salts, supplied glutamine-free) supplemented with 5% horse serum, 5% fetal bovine serum, 26.5 mM bicarbonate, 2 mM glutamine, and 21 mM glucose.
(§3) After 7-8 days in vitro (DIV 7-8), 10 μM cytosine arabinofuranoside (Ara-C) was included to halt overgrowth of glia. The drug treatment was carried on DIV 12-15 cortical cell culture. Overall neuronal cell injury was assessed by measuring amount of lactate dehydrogenase (LDH) released into the bathing medium 24 hr after neurotoxic insults as previously described [Koh and Choi, J Neurosci Methods 20:83-90, 1987].
Mixed cortical cell cultures (DIV 13-15) were continuously exposed to 50 μM FeCl2, which produces hydroxyl radical via a Fenton reaction, alone or with inclusion of 2-Hydroxy-TTBA, 2-Hydroxy-TTA, 2-Hydroxy-TTS, 2-Chloro-TTP, 2-Ethan-TTBA, 2-Propan-TTBA, 2-Cyclohexan-TTBA or trolox (a vitamin E analogue) at indicated doses. Neuronal cell death was analyzed 24 hr later by LDH assay as described above. *, Significant difference from the vehicle control (FeCl2), p<0.05 using ANOVA and Student-Neuman-Keuls' test.

SMILES	neuroprotective effect compared with trolox against FeCl2-induced free radical neurotoxicity
Oc1ccc(NCc2c(F)c(F)c(C(F)(F)F)c(F)c2F)cc1Cl [2-Chloro-TTP, 2-chloro-4-(2,3,5,6-tetrafluoro-4-trifluoromethylbenzylamino)phenol]	much stronger neuroprotective effects than trolox
O=C(O)c1cc(NCc2c(F)c(F)c(C(F)(F)F)c(F)c2F)ccc1OC(=O)C1CCCCC1 [2-Cyclohexan-TTBA, 2-cyclohexanecarbonyloxy-5-(2,3,5,6-tetrafluoro-4-trifluoromethylbenzylamino)benzoic acid]	much stronger neuroprotective effects than trolox
CC(=O)Oc1ccc(NCc2c(F)c(F)c(C(F)(F)F)c(F)c2F)cc1C(=O)O [2-Ethan-TTBA, 2-ethanoyloxy-5-(2,3,5,6-tetrafluoro-4-trifluoromethylbenzylamino)benzoic acid]	much stronger neuroprotective effects than trolox
NC(=O)c1cc(NCc2c(F)c(F)c(C(F)(F)F)c(F)c2F)ccc1O [2-Hydroxy-TTA, 2-hydroxy-5-(2,3,5,6-tetrafluoro-4-trifluoromethylbenzylamino)benzamide]	much stronger neuroprotective effects than trolox
O=S(=O)(O)c1cc(NCc2c(F)c(F)c(C(F)(F)F)c(F)c2F)ccc1O [2-Hydroxy-TTS, 2-hydroxy-5-(2,3,5,6-tetrafluoro-4-trifluoromethylbenzylamino)benzene sulfonic acid]	much stronger neuroprotective effects than trolox
CCC(=O)Oc1ccc(NCc2c(F)c(F)c(C(F)(F)F)c(F)c2F)cc1C(=O)O [2-Propan-TTBA, 2-propanoyloxy-5-(2,3,5,6-tetrafluoro-4-trifluoromethylbenzylamino)benzoic acid]	much stronger neuroprotective effects than trolox

Same assay, conditions: continuous 50 μM FeCl2; LDH 24 hr later

SMILES	prevention of FeCl2-induced free radical neurotoxicity
Cc1c(C)c2c(c(C)c1O)CCC(C)(C(=O)O)O2 (stereo not drawn) [trolox, reference compound]	prevented FeCl2-induced free radical neurotoxicity in a dose-dependent manner

Tested on: Mouse cortical cell cultures
Assay: SNP (sodium nitroprusside) cytotoxicity in mixed cortical cell cultures (LDH assay)
Format: cell-based
Settings: continuous 5 μM SNP; LDH 24 hr later
Description: as §1, with “continuously 5” for “continuously to 50”, “μM sodium nitroprusside (SNP),” for “μM Fe^2+,”, “alone (●)” for “alone”, “of 0.1-10 mM aspirin (◯), 1-100 μM trolox (▾), or 0.1-10” for “of 0.1-100”, “2-Hydroxy-TTBA (∇).” for “2-Hydroxy-TTBA (●) or trolox (◯), a membrane-permeable form of vitamin E).”
as §2, §3
Mixed cortical cell cultures were continuously exposed to 5 μM SNP, a nitric oxide (NO) donor, alone or with inclusion of 0.1-10 μM 2-Hydroxy-TTBA, 1-10 μM trolox or 100-10,000 μM aspirin. Neuronal cell death was analyzed 24 hr later by LDH assay. *, Significant difference from the vehicle control (SNP), p<0.05 using ANOVA and Student-Neuman-Keuls' test.

SMILES	effect on SNP toxicity
CC(=O)Oc1ccccc1C(=O)O [Aspirin, aspirin, reference compound]	did not reduce SNP cytotoxicity
Cc1c(C)c2c(c(C)c1O)CCC(C)(C(=O)O)O2 (stereo not drawn) [trolox, reference compound]	completely blocked

Tested on: not given
Assay: not given
Settings: not given

SMILES	melting point
O=C(O)c1cc(NCc2c(F)c(F)c(C(F)(F)F)c(F)c2F)ccc1[N+](=O)[O-] [Synthesis Example 2, 2-nitro-5-(2,3,5,6-tetrafluoro-4-trifluoromethylbenzylamino)benzoic acid]	121 °C
O=C(O)c1cc(NCc2c(F)c(F)c(C(F)(F)F)c(F)c2F)ccc1Cl [Synthesis Example 3, 2-chloro-5-(2,3,5,6-tetrafluoro-4-trifluoromethylbenzylamino)benzoic acid]	58 °C
O=C(O)c1cc(NCc2c(F)c(F)c(C(F)(F)F)c(F)c2F)ccc1Br [Synthesis Example 4, 2-bromo-5-(2,3,5,6-tetrafluoro-4-trifluoromethylbenzylamino)benzoic acid]	70 °C
Cc1c(F)c(F)c(CNc2ccc(O)c(C(=O)O)c2)c(F)c1F [Synthesis Example 5, 2-hydroxy-5-(2,3,5,6-tetrafluoro-4-methylbenzylamino)benzoic acid]	212 °C
Cc1ccc(NCc2c(F)c(F)c(C(F)(F)F)c(F)c2F)cc1C(=O)O [Synthesis Example 6, 2-methyl-5-(2,3,5,6-tetrafluoro-4-trifluoromethylbenzylamino)benzoic acid]	84 °C
COc1ccc(NCc2c(F)c(F)c(C(F)(F)F)c(F)c2F)cc1C(=O)O [Synthesis Example 7, 2-methoxy-5-(2,3,5,6-tetrafluoro-4-trifluoromethylbenzylamino)benzoic acid]	94 °C
O=C(O)c1cc(NCc2c(F)c(F)c(C(F)(F)F)c(F)c2F)ccc1OC(F)(F)F [Synthesis Example 8, 5-(2,3,5,6-tetrafluoro-4-trifluoromethylbenzylamino)-2-trifluoromethoxybenzoic acid]	38 °C
O=[N+]([O-])c1cc(NCc2c(F)c(F)c(C(F)(F)F)c(F)c2F)ccc1O [Synthesis Example 9, 2-nitro-4-(2,3,5,6-tetrafluoro-4-trifluoromethylbenzylamino)phenol]	126 to 128 °C
COC(=O)c1cc(NCc2c(F)c(F)c(C(F)(F)F)c(F)c2F)ccc1O [Synthesis Example 13, methyl 2-hydroxy-5-(2,3,5,6-tetrafluoro-4-trifluoromethylbenzylamino)benzoate]	127 °C
